Experiment [1] has as its system P. aeruginosa. Kind of experiment: HTS total bacterial growth assay (optical density OD560). Format: cell-based, Pseudomonas aeruginosa. Conditions: for AC50: Pseudomonas aeruginosa, 10 point dose-response 0.1-50 μM, read-out: Total Bacteria Growth AC50. From the text: (§1) Each HTS tier consisted of: (i) primary screening, (ii) confirmation screening and (iii) dose-response curve screening. Each tier of HTS included three distinct biological process assays. The first assay was an optical density measurement of bacteria growth in the presence of each compound reported as a total bacteria growth. In the second assay, resazurin solution was used as an indicator of metabolic activity to measure the live bacteria in the biofilms, reported as live biofilm. The final assay was crystal violet staining, which indicated the amount of biofilm formation and the effect of each compound on this process, reported as total biofilm formation.
(§2) Briefly, stationary phase bacteria grown in L-broth were diluted 1:200 into fresh L-broth and 50 μM of each test compound. After 20-24 hours, the optical density (OD560) of each suspension was measured using Zeiss Plate::Vision with a 560 BP filter (560 nm, 2.5% light intensity, 1 mm focus to bottom of plate, and exposure time of 100 ms). To measure bacterial viability in the biofilm, 50 μl of a 5 mg/ml resazurin solution in L-broth was added to each well after washing 3 times with 50 μl of PBS. The plates were then incubated at 37° C. for 30 or 180 min for A. baumannii and P. aeruginosa biofilms, respectively. Fluorescence was measured using Zeiss Plate::Vision at excitation and emission wavelengths of 535 and 580 nm, 100 ms exposure time, 2.5% intensity and a 2 mm focus to the bottom of the biofilms. To assess biofilm formation, plates were washed 3 times with PBS and then 50 μl of 0.01% of crystal violet was added to each well to assess bacterial biofilm formation as described in a similar borosilicate tube assay by O'Toole and Kolter. After incubation at room temperature for 30 min and removal of the crystal violet solution by washing with PBS, 95% ethanol was added to solubilize the crystal violet followed by incubation for 20 min at room temperature. Finally, the optical density of each plate was determined using measured by Zeiss Plate::Vision using the same settings used to measure total bacterial growth. These 3 steps were used in each of the three tiers for the HTS process: (i) single point primary screening at 10 μM, (ii) triplicate confirmation of hits from (i) at 10 μM and (iii) determination of AC50 values in 10 point dose-response at a concentration range of 0.1-50 μM) in hits from (ii). The AC50 represents the concentration of compound that inhibits 50% of bacterial growth, bacterial viability, or biofilm formation. Genedata Screener® Assay Analyzer Software (Ver. 9.0.0 Standard) was used to analyze data from all assay tiers. Compounds with an AC50 of less than 20 μM in one of the biological assays from the dose response screen were subject to additional investigation.

The subject of experiment [2] is P. aeruginosa biofilm. Kind of experiment: HTS total biofilm formation assay (crystal violet staining). Format: cell-based, Pseudomonas aeruginosa. The note with it: for AC50: 10 point dose-response 0.1-50 μM.
Text: as §1, §2

Experiment [3] relates to S. epidermidis biofilm. The description is as above. Format: cell-based. Conditions: Staphylococcus epidermidis, dose-response.
Text: as §1, §2

Experiment [4] relates to P. aeruginosa biofilm. The experiment is described as follows: HTS live biofilm assay (resazurin metabolic activity). Format: cell-based. The note with it: Pseudomonas aeruginosa, 10 point dose-response 0.1-50 μM.
Text: as §1, §2

Experiment [5] concerns P. aeruginosa established biofilm. The experiment is described as follows: CLSM, effect of compound on the pre-existing biofilm. Format: cell-based, Pseudomonas aeruginosa. Conditions: for Effect of compound on the pre-existing biofilm: Dispersion: ** = Bacterial morphology changed. Here is the method:
Broad spectrum agents (effective against all three bacterial species) and single agent compounds identified as HTS hits were investigated with CLSM confirmation of inhibition of biofilm formation (culture of bacteria with compounds) or killing of bacteria residing within an established biofilm (compound addition after culturing biofilm). To evaluate inhibition of P. aeruginosa biofilms, bacteria were sub-cultured into 10% L-broth and grown at 37° C. until the OD600 reached 0.25. The bacteria were further diluted 1:100 into a modified 0.5×M63 minimum media (50 mM KH2PO4, 7.5 mM (NH4)2SO4, 9 μM FeSO4, 0.5% casamino acids, 0.2% glucose, and 1 mM MgSO4). A. baumannii biofilms were also grown in 10% L-broth until the OD600 reached 0.05 but diluted 1:10 into 5% L-broth media. S. epidermidis biofilm cultures were grown. Briefly, the bacteria were grown in TSB until the OD600 reached 0.75, and a 1:100 dilution of the bacteria was sub-cultured into phosphate buffered saline (PBS). All of the biofilm bacterial cultures were grown in 96-well plate chambers (MatTek Corp., Ashland, Mass.) in the presence of 10 μM of each compound or DMSO as a control and incubated for 18 hrs at 37° C. To investigate the ability of compounds to kill bacteria within pre-existing biofilms, biofilms were grown under the same conditions, but without test compound. These biofilms were washed once with PBS and incubated an additional 24 hr at 37° C. in PBS containing 300 μM of each compound. All biofilm cultures were then washed twice with 100 μL of PBS and stained using the LIVE/DEAD® BacLight™ Bacterial Viability Kit (Invitrogen). Finally, biofilm images were obtained using a Zeiss LSM510 META Confocal Microscope (Carl Zeiss, Inc., Germany). A 488 nm laser was used in conjunction with a Plan-Apochromat 100×/1.4 Oil DIC objective. Z-stacks were 8 bit and measured 127.3 μm×127.3 μm×16.0 μm in size. The filters used were 505-530 and 620-680 IR, as the excitation and emission wavelengths for red fluorescence are 490 nm and 635 nm, respectively, and 480 nm and 500 nm for green fluorescence. Three dimensional images were generated using the “Projection” ability on LSM Image Browser software (v.1.4.0.121) or Zeiss LSM image browser software version 3.5 (Carl Zeiss, Inc., Germany), and Live/Dead calculations were conducted based upon these images using MacBiophotonics ImageJ following the guidelines in the cell counting guide by C. Labno {Rasband, 1997-2011 #25; Labno, #2} at the University of Chicago Integrated Light Microscopy Core. The thickness of the biofilm was calculated using Comstat software. A hit was defined as a >50% dead to live ratio.
The CLSM experiment was performed in one or two or all bacteria used in this study depending on its activity. For the validation of HTS hits, 10 μM of compound was added to each bacterial suspension and the resulting biofilm stained with LIVE/DEAD® BacLight™ Bacterial Viability Kit. The images were analyzed to determine the live and dead ratios of biofilm bacteria, the thickness of biofilms, and structural attributes of biofilms.

Each structure is given as a SMILES string. Entries after “also recorded” stand apart in the source; their conditions may differ.

On to `O=C(O)c1cn(C2CC2)c2c(F)c(N3CC(O)C3)c(F)cc2c1=O` [Compound 8, 1-cyclopropyl-6,8-difluoro-7-(3-hydroxyazetidin-1-yl)-4-oxoquinoline-3-carboxylic acid], for which the AC50 in experiment [1] is 44.4 µM; in experiment [2], 10.3 µM; in experiment [3], under 0.1 µM; in experiment [4], 57 µM. The “HTS assay results: Total Bacteria growth” value in experiment [1] (Y / —) was “—* (AC50 higher than 20 μM)”. Also, the “HTS assay results: Biofilm Formation” value in experiment [2] (Y / —) is “—* (AC50 higher than 20 μM)”. In experiment [5] (300 μM), the “biofilm architecture / thickness of established P. aeruginosa biofilm (CLSM)” value is recorded as “thinner biofilm architecture”. The “Effect of compound on the pre-existing biofilm: Dispersion” value (“Effect of compound … Dispersion” below) in experiment [5] (CLSM, 300 μM compound, 24 hr) is “caused dispersion and Y**”. The “bacterial morphology in established P. aeruginosa biofilm (CLSM)” value in experiment [5] is on record as “altered the morphology”.

Consider `O=C(O)c1cn(C2CC2)c2c(F)c(-c3ccncc3)c(F)cc2c1=O` [Compound 11, 7-(4-pyridyl)-1-cyclopropyl-6,8-difluoro-4-oxoquinoline-3-carboxylic acid], for which the AC50 in experiment [1] was 16 µM; in experiment [2] (Pseudomonas aeruginosa) it was 7.4 µM; in experiment [3], under 0.1 µM; in experiment [4] it was 9.6 µM. For the same compound, the “biofilm architecture / thickness of established P. aeruginosa biofilm (CLSM)” value in experiment [5] (300 μM) is “thinner biofilm architecture”. In experiment [5] (CLSM, 300 μM compound, 24 hr), the “Effect of compound … Dispersion” value was “caused dispersion and Y**”. In addition, the “bacterial morphology in established P. aeruginosa biofilm (CLSM)” value in experiment [5] was “altered the morphology”.

As to `Cn1sc(Cl)c(C#N)c1=O` [Compound 3, 5-chloro-2-methyl-3-oxo-1,2-thiazole-4-carbonitrile], the half-maximal activity concentration (AC50) is 9.27 µM in experiment [1], 3.07 µM in experiment [2] (Pseudomonas aeruginosa), 8.84 µM in experiment [3] and 13.4 µM in experiment [4]. The “killing of established P. aeruginosa biofilm (CLSM, in words)” value in experiment [5] (300 μM, 24 hr) was “demonstrated killing; also recorded: effective at killing”. Besides, the “Effect of compound on the pre-existing biofilm: Killing” value in experiment [5] (CLSM, 300 μM compound, 24 hr, Y / —) is given as “Y (A hit was defined as a >50% dead to live ratio)”.

With `NC(=S)N1CCN(c2cc3c(cc2F)c(=O)c(C(=O)O)cn3C2CC2)CC1` [Compound 7, 7-(4-carbamothioylpiperazin-1-yl)-1-cyclopropyl-6-fluoro-4-oxoquinoline-3-carboxylic acid], the AC50 worked out at 3 µM in experiment [1], 7.81 µM in experiment [2] (Pseudomonas aeruginosa), 1.12 µM in experiment [3] and 0.38 µM in experiment [4]. Also, in experiment [5] (CLSM, 300 μM compound, 24 hr), the “Effect of compound … Dispersion” value is “caused dispersion and Y**”. In addition, the “bacterial morphology in established P. aeruginosa biofilm (CLSM)” value in experiment [5] is “altered the morphology”.

These data come from patent US10704076B2, “Multi-tiered high through-put screen for compounds effective against bacterial biofilm and compounds effective for inhibiting and eradicating bacterial biofilm” (University of Cincinnati, priority 2013, dated 2020).
